Results from patent US20170266155A1, “METHOD FOR ENHANCING THE OXYGENATION LEVEL OF TISSUE CELLS AS AN ALTERNATIVE METHOD FOR HYPERBARIC OXYGEN THERAPY” (National Sun Yat-sen University, priority 2016, published 2017).
Each block holds one compound with its values, some of them ahead of it.

Target: hemoglobin (Hb) (Homo sapiens, UniProt P68871+P69905)
Experiment: Oxygen equilibrium curves and P50 value of hemoglobin (Hb)
Assay type: biochemical
Conditions: for effect of phthalide compound together with 2,3-BPG on oxygen release efficiency of hemoglobin (Hb): combined with 2,3-BPG (FIG. 1)
From the text: The oxygen affinity of hemoglobin (Hb) is commonly characterized by P50 value. The P50 value is the required oxygen partial pressure to achieve 50% oxygen saturation of hemoglobin. […] An increased blood PCO2, a decreased pH or an increased 2,3-BPG level in erythrocytes can all decrease the oxygen affinity of hemoglobin (Hb), so that the oxygen equilibrium curve shifts to the right and the P50 value increases (as shown in FIG. 2); contrarily, when the oxygen affinity of hemoglobin (Hb) increases, the oxygen equilibrium curve shifts to the left and the P50 value decreases.
The oxygen affinity of hemoglobin (Hb) was commonly characterized by P50 value. The P50 value was the required oxygen partial pressure to achieve 50% oxygen saturation for hemoglobin. […] An increased blood PCO2, a decreased pH or an increased 2,3-BPG concentration in erythrocytes could decrease the oxygen affinity of hemoglobin (Hb), as a result, the oxygen equilibrium curve shifted to the right and the P50 value increased (as shown in FIG. 2); contrarily, when the oxygen affinity of hemoglobin (Hb) increased, the oxygen equilibrium curve shifted to the left and the P50 value decreased.

hemoglobin (Hb), sequence (P69905 2-142 limits assumed): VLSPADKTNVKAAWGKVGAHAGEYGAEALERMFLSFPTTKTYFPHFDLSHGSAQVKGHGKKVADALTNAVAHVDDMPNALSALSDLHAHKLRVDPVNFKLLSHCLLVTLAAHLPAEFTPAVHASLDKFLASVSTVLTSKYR
hemoglobin (Hb), sequence (P68871 2-147 limits assumed): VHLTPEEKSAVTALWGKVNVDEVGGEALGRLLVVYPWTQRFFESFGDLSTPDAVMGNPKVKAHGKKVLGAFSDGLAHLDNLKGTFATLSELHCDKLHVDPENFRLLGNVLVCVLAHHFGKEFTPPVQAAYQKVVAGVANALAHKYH

SMILES: CCC/C=C1\OC(=O)c2ccccc21 [Z-Butylidenephthalide, Z-butylidenephthalide]
- effect on oxygen release efficiency of hemoglobin (Hb) from resulting P50 values (shortest detection time frame (30 minutes) (FIG. 2)): increasing the oxygen release efficiency of hemoglobin (Hb)

SMILES: CCC/C=C1\OC(=O)C2=C1CCC=C2 [Z-ligustilide]
- effect of phthalide compound together with 2,3-BPG on oxygen release efficiency of hemoglobin (Hb): synergistic effect

SMILES: CCC/C=C1\OC(=O)C2=C1CC[C@@H](O)[C@@H]2O [senkyunolide I]
- effect of phthalide compound together with 2,3-BPG on oxygen release efficiency of hemoglobin (Hb): synergistic effect

- oxygen saturation fraction of hemoglobin (Hb) (12 mM 2,3-BPG, fixed oxygen partial pressure of 20 mmHg, 80% where no 2,3-BPG is present (FIG. 3)): 35%
- oxygen release efficiency of Hb (12 mM 2,3-BPG, oxygen partial pressure 20 mmHg, 20% without 2,3-BPG): 65%
- P50 value / shift of oxygen equilibrium curve with concentration (2,3-BPG concentrations 0.2-12 mM (FIG. 3)): the P50 value is higher
- oxygen release efficiency (PO2=20 mmHg, 1.2 mM 2,3-BPG alone): 40%
- oxygen saturation fraction (PO2=20 mmHg, 1.2 mM 2,3-BPG alone (FIG. 6)): approximately 60%
- P50 value of hemoglobin (Hb) (approximately 4 mM 2,3-BPG, no phthalide compound (FIG. 5)): 18.8 mmHg
SMILES: O=C(O)C(COP(=O)(O)O)OP(=O)(O)O (stereo not drawn) [2,3-BPG, 2,3-bisphosphorglycerate]
